Reference: patent publication US5691319A, “Pyrimidine nucleoside derivatives having anti-tumor activity, their preparation and use” (Sankyo Company, Limited, priority 1991, dated 1997)

Assays:
mouse fibrosarcoma M5076 = test: Anti-tumor activity against M5076 fibrosarcoma (sc implanted, BDF1 mice); type: in vivo; settings: days 1, 4, 7, 10, 13 and 16; for 60 day survivors optimal dose / growth inhibition (%) optimal dose: oral; for 60 day survivors optimal dose: survivors/mice; for growth inhibition (%) optimal dose / growth inhibition (%) optimal dose/4: tumor size on twentieth day; for growth inhibition (%) optimal dose/4: optimal dose/4, oral
Description: The test animals used were female mice, 8-10 weeks old, of the BDF1 strain, weighing 20-25 g. The mice were purchased from Charles River Japan Inc., Kanagawa Japan. The mice were divided into experimental groups, each group containing 6 mice, and all mice within each group were treated identically. Each mouse was inoculated subcutaneously with 1×10^6 viable cells (the number of cells was measured by a dye exclusion method under microscopy) of the mouse fibrosarcoma M5076.
The test compounds listed in the following Table were dissolved in 0.2 ml of N,N-dimethylacetamide and the solution was mixed with 10% Emulphor (trade mark)-physiological saline on an agate mortar. The final concentration of N,N-dimethylacetamide was 5% v/v. The solution was administered orally on the first, fourth, seventh, tenth, thirteenth and sixteenth days following inoculation of the fibrosarcoma cells. The period for which the mice survived and the % inhibition of tumor growth were determined. A control group was not treated.
The anti-tumor effect is shown in the following Table 4 as the percent growth inhibition [GI (%)], calculated from the following equations [R. I. Geran et al., Cancer Chemother. Rept., 3 (1972)]:
TDt=average value of tumor sizes on the twentieth day in the treated group; and
TDc=average value of tumor sizes on the twentieth day in the control group;
tumor size=(tumor length+tumor width)/2.

p-388 leukemia = test: Anti-tumor activity against p-388 leukemia (ip implanted, CDF1 mice); type: in vivo; settings: for ILS (%) (increase in life span): days 1, 5 and 9; for 30 days survivors: days 1, 5 and 9, survivors/mice
Description: The test animals employed were female mice, 8 weeks of age, of the CDF1 strain, each weighing 21-25 g. The mice were divided into groups. each of 5 mice, and all mice within the group were treated identically. Into each mouse was implanted intraperitoneally 1×10^6 cells of the leukemia p-388.
The test compounds 1-9, 1-11, 1-15, 1-31 and 1-62 were dissolved in 0.2 ml of N,N-dimethylacetamide and the solution was mixed with 10% Emulphor (trade mark)-physiological saline on an agate mortar. Test compounds 1-34 and 1-41 were dissolved in a small amount of Tween 80 (registered trade mark) and immediately thereafter physiological saline was added to the solution form a suspension. The suspension was administered intraperitoneally on the first, fifth and ninth days following implantation of the leukemia cells. The period for which the mice survived was determined. A control group was treated identically, except that no active compound was administered.
The anti-tumor effect is shown in the following Table 3 as the increase in life span [ILS (%)], calculated from the following equation [R. I. Geran et al, Cancer Chemother. Rept., 3 (1972)]:
Dt=average number of days survival by the test group; and
Dc=average number of days survival by the control group.
In this test Dc was 9-10 days.

Compound	60 day survivors optimal dose (mouse fibrosarcoma M5076)	growth inhibition (%) optimal dose (mouse fibrosarcoma M5076)	growth inhibition (%) optimal dose/4 (mouse fibrosarcoma M5076)	ILS (%) (increase in life span) (p-388 leukemia; dose 200 mg/kg)	30 days survivors (p-388 leukemia; dose 200 mg/kg)	ILS (%) (increase in life span) (p-388 leukemia; dose 50 mg/kg)	30 days survivors (p-388 leukemia; dose 50 mg/kg)	ILS (%) (increase in life span) (p-388 leukemia; dose 100 mg/kg)	30 days survivors (p-388 leukemia; dose 100 mg/kg)
CCCCCC(=O)Nc1ccn([C@@H]2O[C@H](CO)[C@@H](O)[C@@H]2C#N)c(=O)n1 [Compound 1-1, 2'-Cyano-2'-deoxy-N^4-hexanoyl-1-β-D-arabinofuranosylcytosine]	4/6	97.7%	61.1%						
CCCCCCCCCC(=O)Nc1ccn([C@@H]2O[C@H](CO)[C@@H](O)[C@@H]2C#N)c(=O)n1 [Compound 1-5, 2'-Cyano-N^4-decanoyl-2'-deoxy-1-β-D-arabinofuranosylcytosine]	3/6	93.0%	70.4%						
CCCCCCCCCCCCCC(=O)Nc1ccn([C@@H]2O[C@H](CO)[C@@H](O)[C@@H]2C#N)c(=O)n1 [Compound 1-9, 2'-Cyano-2'-deoxy-N^4-tetradecanoyl-1-β-D-arabinofuranosylcytosine]	5/6	97.3%	79.1%	> 200%	4/5				
CCCCCCCCCCCCCCCC(=O)Nc1ccn([C@@H]2O[C@H](CO)[C@@H](O)[C@@H]2C#N)c(=O)n1 [Compound 1-11, 2'-Cyano-2'-deoxy-N^4-palmitoyl-1-β-D-arabinofuranosylcytosine]	5/6	99.2%	90.2%			189%	2/5		
CCCCCCCCCCCCCCCCCC(=O)Nc1ccn([C@@H]2O[C@H](CO)[C@@H](O)[C@@H]2C#N)c(=O)n1 [Compound 1-13, 2'-Cyano-2'-deoxy-N^4-stearoyl-1-β-D-arabinofuranosylcytosine]	4/6	98.1%	88.9%						
CCCCCCCCCCCCCCCCCCCC(=O)Nc1ccn([C@@H]2O[C@H](CO)[C@@H](O)[C@@H]2C#N)c(=O)n1 [Compound 1-15, 2'-Cyano-2'-deoxy-N^4-icosanoyl-1-β-D-arabinofuranosylcytosine]	5/6	96.5%	88.7%					202%	0/5
COCOCCCCCCCCCC(=O)Nc1ccn([C@@H]2O[C@H](CO)[C@@H](O)[C@@H]2C#N)c(=O)n1 [Compound 1-31, 2'-Cyano-2'-deoxy-N^4-(10-methoxymethoxydecanoyl)-1-β-D-arabinofuranosylcytosine]				152%	0/5				
COCOCCCCCCCCCCCCCCCC(=O)Nc1ccn([C@@H]2O[C@H](CO)[C@@H](O)[C@@H]2C#N)c(=O)n1 [Compound 1-34, 2'-Cyano-2'-deoxy-N^4-(16-methoxymethoxyhexadecanoyl)-1-β-D-arabinofuranosylcytosine]	5/6	96.0%	87.2%					> 195%	3/5
COCCOCOCCCCCCCCCCCCCCCC(=O)Nc1ccn([C@@H]2O[C@H](CO)[C@@H](O)[C@@H]2C#N)c(=O)n1 [Compound 1-41, 2'-Cyano-2'-deoxy-N^4-(16-methoxyethoxymethoxyhexadecanoyl)-1-β-D-arabinofuranosylcytosine]	5/6	99.2%	76.2%					159%	2/5
N#CCCCCCCCCCCC(=O)Nc1ccn([C@@H]2O[C@H](CO)[C@@H](O)[C@@H]2C#N)c(=O)n1 [Compound 1-62, 2'-Cyano-N^4-(11-cyanoundecanoyl)-2'-deoxy-1-β-D-arabinofuranosylcytosine]	6/6	99.0%	83.3%	159%	0/5				
